Results as given in ChEMBL document CHEMBL4507293 (2021).

What was measured:
[1] = target: Mitogen-activated protein kinase kinase kinase kinase 1 (Homo sapiens) (UniProt Q92918); settings: Compound concentration 100.0 nM
[2] = target: 5-hydroxytryptamine receptor 7 (Homo sapiens, UniProt P34969); experiment: GPCRScan assay: inhibition of 5-HT7A; parameters: radioligand conc. used [nm] 5.0 – 6.0, parental cells Stable HEK
[3] = test system: Phosphatidylinositol 4,5-bisphosphate 3-kinase catalytic subunit alpha isoform (Homo sapiens), P42336 [H1047L]; settings: Compound concentration 100.0 nM
[4] = target: 5-hydroxytryptamine receptor 3A (Homo sapiens) (UniProt P46098); settings: Compound concentration 10.0 uM
[5] = target: Peroxisome proliferator-activated receptor gamma (Homo sapiens) (UniProt P37231); experiment: PPARgamma Eurofins-Panlabs radioligand binding assay; parameters: ligand concentration 5 nM, non-specific ligand with concentration 0.5 µM L-797773, incubation time 18 h, incubation temperature 15 °C; settings: Compound concentration 10.0 uM
Peroxisome proliferator-activated receptor gamma (Homo sapiens), sequence (P37231 whole entry): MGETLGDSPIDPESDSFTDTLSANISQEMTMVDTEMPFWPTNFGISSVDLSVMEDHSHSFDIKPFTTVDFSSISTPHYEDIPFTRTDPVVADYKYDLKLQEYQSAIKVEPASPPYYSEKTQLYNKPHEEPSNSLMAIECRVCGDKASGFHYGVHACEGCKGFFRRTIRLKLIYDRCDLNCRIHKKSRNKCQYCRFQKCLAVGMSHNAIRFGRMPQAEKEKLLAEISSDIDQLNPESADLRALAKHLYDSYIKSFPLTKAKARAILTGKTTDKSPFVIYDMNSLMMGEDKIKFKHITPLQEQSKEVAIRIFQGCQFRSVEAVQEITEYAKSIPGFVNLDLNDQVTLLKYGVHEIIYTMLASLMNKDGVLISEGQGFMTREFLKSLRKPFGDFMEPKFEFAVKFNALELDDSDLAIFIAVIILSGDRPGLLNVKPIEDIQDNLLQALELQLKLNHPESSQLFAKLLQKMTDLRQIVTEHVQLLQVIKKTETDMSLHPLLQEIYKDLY

[6] = target: GABA-A receptor; anion channel (Rattus norvegicus) (UniProt O09028+P15431+P18506+P18508+P19969+P20236+P23574+P23576+P28471+P28473+P30191+P62813+P63079+P63138+Q91ZM7+Q9ES14); settings: Compound concentration 10.0 uM
[7] = target: Histamine H2 receptor (Homo sapiens) (UniProt P25021); settings: Compound concentration 10.0 uM
[8] = target: B2 bradykinin receptor (Homo sapiens) (UniProt P30411); experiment: Bradykinin B2 Eurofins-Panlabs radioligand binding assay; settings: Compound concentration 10.0 uM
B2 bradykinin receptor (Homo sapiens), sequence (P30411 whole entry): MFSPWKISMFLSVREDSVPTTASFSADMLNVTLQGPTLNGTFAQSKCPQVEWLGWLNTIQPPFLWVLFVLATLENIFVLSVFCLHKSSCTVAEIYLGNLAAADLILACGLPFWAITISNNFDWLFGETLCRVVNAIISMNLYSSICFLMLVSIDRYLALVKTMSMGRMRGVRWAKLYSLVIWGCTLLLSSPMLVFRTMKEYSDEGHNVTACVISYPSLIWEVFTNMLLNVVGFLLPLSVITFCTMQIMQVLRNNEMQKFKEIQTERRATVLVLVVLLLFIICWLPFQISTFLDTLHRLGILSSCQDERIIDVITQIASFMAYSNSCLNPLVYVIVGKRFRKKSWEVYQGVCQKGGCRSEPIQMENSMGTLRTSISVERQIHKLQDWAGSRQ

[9] = target: Vasopressin V2 receptor (Homo sapiens) (UniProt P30518); experiment: Inhibition of Vasopressin V2 at 10 µM in the Eurofins-Panlabs radioligand binding assay (Eurofins_assay_287610); parameters: ligand concentration 4 nM; settings: Compound concentration 10.0 uM
[10] = target: Sodium-dependent serotonin transporter (Homo sapiens) (UniProt P31645); settings: Compound concentration 10.0 uM
Sodium-dependent serotonin transporter (Homo sapiens), sequence (P31645 whole entry, looked up): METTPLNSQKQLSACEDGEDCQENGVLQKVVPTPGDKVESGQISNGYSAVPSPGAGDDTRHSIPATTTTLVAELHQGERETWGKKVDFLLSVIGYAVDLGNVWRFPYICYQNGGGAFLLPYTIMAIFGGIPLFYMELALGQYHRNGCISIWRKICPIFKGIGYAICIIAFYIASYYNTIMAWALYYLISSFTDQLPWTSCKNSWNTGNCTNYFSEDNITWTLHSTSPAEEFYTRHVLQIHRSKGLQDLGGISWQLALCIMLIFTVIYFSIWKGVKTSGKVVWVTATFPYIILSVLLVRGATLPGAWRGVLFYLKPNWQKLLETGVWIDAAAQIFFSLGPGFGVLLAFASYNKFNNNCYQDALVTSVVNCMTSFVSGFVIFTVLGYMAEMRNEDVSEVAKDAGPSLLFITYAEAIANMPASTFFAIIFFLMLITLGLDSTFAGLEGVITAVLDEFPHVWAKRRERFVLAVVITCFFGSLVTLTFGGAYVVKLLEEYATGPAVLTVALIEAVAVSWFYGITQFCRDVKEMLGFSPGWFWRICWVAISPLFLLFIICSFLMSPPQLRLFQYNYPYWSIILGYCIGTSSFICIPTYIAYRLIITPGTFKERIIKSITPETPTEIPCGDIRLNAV

[11] = target: Beta-2 adrenergic receptor (Homo sapiens) (UniProt P07550); settings: Compound concentration 10.0 uM
[12] = target: Acetylcholine receptor subunit alpha (Homo sapiens) (UniProt P02708); experiment: Inhibition of Nicotinic Acetylcholine D1, Bungarotoxin at 10 µM in the Eurofins-Panlabs radioligand binding assay (Eurofins_assay_258700); settings: Compound concentration 10.0 uM
[13] = target: C-X-C chemokine receptor type 4 (Homo sapiens) (UniProt P61073); experiment: Chemokine CXCR4 Eurofins-Panlabs radioligand binding assay; parameters: ligand concentration 0.03 nM; settings: Compound concentration 10.0 uM
C-X-C chemokine receptor type 4 (Homo sapiens), sequence (P61073 whole entry): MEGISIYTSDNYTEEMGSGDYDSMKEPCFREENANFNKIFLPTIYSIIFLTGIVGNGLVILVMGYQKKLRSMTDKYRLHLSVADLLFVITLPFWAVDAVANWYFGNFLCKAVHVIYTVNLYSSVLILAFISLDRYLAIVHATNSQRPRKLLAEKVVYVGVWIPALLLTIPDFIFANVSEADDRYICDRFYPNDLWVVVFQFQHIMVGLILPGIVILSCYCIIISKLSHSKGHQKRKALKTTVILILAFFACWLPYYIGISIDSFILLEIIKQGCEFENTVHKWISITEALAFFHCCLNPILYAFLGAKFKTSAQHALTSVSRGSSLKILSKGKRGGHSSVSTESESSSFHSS

[14] = target: Melanin-concentrating hormone receptor 1 (Homo sapiens) (UniProt Q99705); experiment: Melanin-Concentrating Hormone MCH1 (SLC1) Eurofins-Panlabs radioligand binding assay; parameters: ligand concentration 0.05 nM; settings: Compound concentration 10.0 uM
Homo sapiens [15] = species on record: Homo sapiens; experiment: Cholecystokinin CCK2 (CCKB) Eurofins-Panlabs radioligand binding assay; parameters: ligand concentration 0.072 nM, non-specific ligand with concentration 1 µM Sincalide, incubation time 3 h, incubation temperature 25 °C; settings: Compound concentration 10.0 uM
[16] = target: 5-hydroxytryptamine receptor 6 (Homo sapiens) (UniProt P50406); experiment: Inhibition of Serotonin (5-Hydroxytryptamine) 5-HT6 at 10 µM in the Eurofins-Panlabs radioligand binding assay (Eurofins_assay_272200); settings: Compound concentration 10.0 uM
[17] = target: Cholecystokinin receptor type A (Homo sapiens) (UniProt P32238); experiment: Inhibition of Cholecystokinin CCK1 (CCKA) at 10 µM in the Eurofins-Panlabs radioligand binding assay (Eurofins_assay_218020); settings: Compound concentration 10.0 uM
Cholecystokinin receptor type A (Homo sapiens), sequence (P32238 whole entry): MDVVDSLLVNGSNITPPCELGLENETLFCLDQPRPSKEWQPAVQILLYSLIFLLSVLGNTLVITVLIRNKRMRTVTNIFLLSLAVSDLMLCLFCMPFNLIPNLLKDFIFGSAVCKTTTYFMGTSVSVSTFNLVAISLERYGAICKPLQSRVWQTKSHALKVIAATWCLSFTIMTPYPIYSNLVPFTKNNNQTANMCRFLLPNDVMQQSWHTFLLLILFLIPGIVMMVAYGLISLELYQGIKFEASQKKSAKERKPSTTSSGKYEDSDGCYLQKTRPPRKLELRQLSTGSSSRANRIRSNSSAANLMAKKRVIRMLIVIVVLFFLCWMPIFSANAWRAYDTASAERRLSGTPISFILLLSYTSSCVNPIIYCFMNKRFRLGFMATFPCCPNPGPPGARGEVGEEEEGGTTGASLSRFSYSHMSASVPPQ

[18] = target: Melanocortin receptor 3 (Homo sapiens) (UniProt P41968); experiment: Inhibition of Melanocortin MC3 at 10 µM in the Eurofins-Panlabs radioligand binding assay (Eurofins_assay_251300); parameters: ligand concentration 0.035 nM; settings: Compound concentration 10.0 uM
Melanocortin receptor 3 (Homo sapiens), sequence (P41968 whole entry): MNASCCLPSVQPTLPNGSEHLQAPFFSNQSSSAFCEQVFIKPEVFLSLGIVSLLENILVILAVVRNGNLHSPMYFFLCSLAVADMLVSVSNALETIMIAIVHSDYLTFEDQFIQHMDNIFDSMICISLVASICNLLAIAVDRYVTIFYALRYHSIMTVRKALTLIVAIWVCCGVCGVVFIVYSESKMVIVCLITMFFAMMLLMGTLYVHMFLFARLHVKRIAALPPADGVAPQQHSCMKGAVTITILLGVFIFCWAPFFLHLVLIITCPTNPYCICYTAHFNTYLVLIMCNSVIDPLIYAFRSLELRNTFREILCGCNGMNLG

Rattus norvegicus = species on record: Rattus norvegicus; experiment: GABAA, Ro-15-1788, Hippocampus Eurofins-Panlabs radioligand binding assay; parameters: ligand concentration 1 nM; settings: Compound concentration 10.0 uM
[19] = target: Sodium-dependent dopamine transporter (Homo sapiens) (UniProt Q01959); settings: Compound concentration 10.0 uM
[20] = target: Prostaglandin F2-alpha receptor (Homo sapiens) (UniProt P43088); experiment: Prostanoid FP Eurofins-Panlabs radioligand binding assay; parameters: ligand concentration 0.95 nM; settings: Compound concentration 10.0 uM
[21] = target: Progesterone receptor (Homo sapiens) (UniProt P06401); experiment: Inhibition of Progesterone PR-B at 10 µM in the Eurofins-Panlabs radioligand binding assay (Eurofins_assay_268020); parameters: ligand concentration 1.4 nM; settings: Compound concentration 10.0 uM
[22] = target: High affinity choline transporter 1 (Homo sapiens) (UniProt Q9GZV3); experiment: Transporter, Choline Eurofins-Panlabs radioligand binding assay; parameters: ligand concentration 0.75 nM; settings: Rattus norvegicus; Compound concentration 10.0 uM
[23] = target: 5-hydroxytryptamine receptor 1B (Homo sapiens) (UniProt P28222); experiment: Inhibition of Serotonin (5-Hydroxytryptamine) 5-HT1B at 10 µM in the Eurofins-Panlabs radioligand binding assay (Eurofins_assay_271200); settings: Compound concentration 10.0 uM
5-hydroxytryptamine receptor 1B (Homo sapiens), sequence (P28222 whole entry): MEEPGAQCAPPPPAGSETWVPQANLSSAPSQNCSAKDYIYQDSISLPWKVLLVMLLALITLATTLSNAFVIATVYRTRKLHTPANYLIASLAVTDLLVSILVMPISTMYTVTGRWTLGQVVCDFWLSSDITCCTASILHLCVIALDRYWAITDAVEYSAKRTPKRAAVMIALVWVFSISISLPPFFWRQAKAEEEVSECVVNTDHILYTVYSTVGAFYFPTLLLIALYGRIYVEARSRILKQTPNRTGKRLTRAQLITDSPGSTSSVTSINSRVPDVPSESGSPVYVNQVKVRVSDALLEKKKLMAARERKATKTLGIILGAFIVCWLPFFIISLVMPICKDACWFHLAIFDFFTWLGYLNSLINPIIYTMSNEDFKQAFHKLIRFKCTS

[24] = target: Histamine H3 receptor (Homo sapiens) (UniProt Q9Y5N1); experiment: Histamine H3 Eurofins-Panlabs radioligand binding assay; settings: Compound concentration 10.0 uM
[25] = target: Nociceptin receptor (Homo sapiens) (UniProt P41146); experiment: Orphanin ORL1 Eurofins-Panlabs radioligand binding assay; settings: Compound concentration 10.0 uM
[26] = target: Phosphodiesterase 3 (Homo sapiens) (UniProt Q14432+Q13370); experiment: Inhibition of Phosphodiesterase PDE3 at compound concentration of 10.0 uM in the Eurofins-Panlabs enzyme assay (Eurofins_assay_152000); format: protein assay; parameters: substrate with concentration 1.01 uM [3H] cAMP + cAMP, incubation time 20 min, incubation temperature 25 C; settings: Compound concentration 10.0 uM
[27] = target: Substance-K receptor (Homo sapiens) (UniProt P21452); experiment: Inhibition of Tachykinin NK2 at 10 µM in the Eurofins-Panlabs radioligand binding assay (Eurofins_assay_255600); parameters: ligand concentration 0.5 nM; settings: Compound concentration 10.0 uM
[28] = target: Mu-type opioid receptor (Homo sapiens) (UniProt P35372); settings: Compound concentration 10.0 uM
[29] = target: Histamine H1 receptor (Homo sapiens) (UniProt P35367); settings: Compound concentration 10.0 uM
[30] = target: Sodium-dependent noradrenaline transporter (Homo sapiens) (UniProt P23975); settings: Compound concentration 10.0 uM
Sodium-dependent noradrenaline transporter (Homo sapiens), sequence (P23975 whole entry): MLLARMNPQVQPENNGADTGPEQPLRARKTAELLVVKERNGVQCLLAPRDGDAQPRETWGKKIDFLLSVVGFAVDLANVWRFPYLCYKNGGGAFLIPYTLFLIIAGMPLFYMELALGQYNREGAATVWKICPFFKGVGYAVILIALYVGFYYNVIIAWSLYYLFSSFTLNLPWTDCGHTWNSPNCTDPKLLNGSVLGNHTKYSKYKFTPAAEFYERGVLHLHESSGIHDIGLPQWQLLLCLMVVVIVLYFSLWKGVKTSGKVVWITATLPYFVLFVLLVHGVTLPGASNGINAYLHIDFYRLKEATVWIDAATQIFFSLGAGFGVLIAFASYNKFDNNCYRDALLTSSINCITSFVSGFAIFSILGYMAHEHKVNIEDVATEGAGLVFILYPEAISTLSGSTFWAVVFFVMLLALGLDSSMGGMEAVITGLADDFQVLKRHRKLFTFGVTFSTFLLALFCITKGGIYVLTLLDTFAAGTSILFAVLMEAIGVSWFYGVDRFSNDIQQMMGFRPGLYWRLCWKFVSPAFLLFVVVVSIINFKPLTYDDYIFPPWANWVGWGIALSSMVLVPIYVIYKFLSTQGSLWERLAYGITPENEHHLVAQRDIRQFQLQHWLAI

[31] = target: Sodium-dependent noradrenaline transporter (Homo sapiens) (UniProt P23975); settings: Compound concentration 10.0 uM; remark: listed apart in the source
Homo sapiens [32] = species on record: Homo sapiens; experiment: Glutamate, Metabotropic, mGlu5 Eurofins-Panlabs radioligand binding assay; settings: Compound concentration 10.0 uM
[33] = target: 5-hydroxytryptamine receptor 2B (Homo sapiens) (UniProt P41595); settings: Compound concentration 10.0 uM
[34] = target: Acetylcholinesterase (Homo sapiens) (UniProt P22303); settings: Compound concentration 10.0 uM
[35] = target: D(2) dopamine receptor (Homo sapiens) (UniProt P14416); settings: Compound concentration 10.0 uM
[36] = target: Epidermal growth factor receptor (Homo sapiens) (UniProt P00533); experiment: Protein Tyrosine Kinase, EGF Receptor Eurofins-Panlabs enzyme assay; parameters: substrate with concentration 10 µg/mL Poly(Glu:Tyr), incubation time 60 min, incubation temperature 25 °C; settings: Compound concentration 10.0 uM
[37] = target: Histamine H4 receptor (Homo sapiens) (UniProt Q9H3N8); experiment: Histamine H4 Eurofins-Panlabs radioligand binding assay; settings: Compound concentration 10.0 uM
Histamine H4 receptor (Homo sapiens), sequence (Q9H3N8 whole entry): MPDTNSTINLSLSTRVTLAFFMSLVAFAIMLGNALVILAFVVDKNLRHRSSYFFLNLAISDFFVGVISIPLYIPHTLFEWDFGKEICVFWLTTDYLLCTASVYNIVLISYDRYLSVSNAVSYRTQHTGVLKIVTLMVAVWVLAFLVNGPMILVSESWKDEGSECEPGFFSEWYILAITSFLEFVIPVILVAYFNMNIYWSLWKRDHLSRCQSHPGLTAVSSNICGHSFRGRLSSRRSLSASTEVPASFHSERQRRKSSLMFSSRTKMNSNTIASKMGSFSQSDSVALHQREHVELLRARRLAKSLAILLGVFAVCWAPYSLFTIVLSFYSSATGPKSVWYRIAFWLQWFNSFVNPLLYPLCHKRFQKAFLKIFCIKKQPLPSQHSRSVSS

[38] = target: Vasopressin V1a receptor (Homo sapiens) (UniProt P37288); settings: Compound concentration 10.0 uM
Vasopressin V1a receptor (Homo sapiens), sequence (P37288 whole entry, looked up): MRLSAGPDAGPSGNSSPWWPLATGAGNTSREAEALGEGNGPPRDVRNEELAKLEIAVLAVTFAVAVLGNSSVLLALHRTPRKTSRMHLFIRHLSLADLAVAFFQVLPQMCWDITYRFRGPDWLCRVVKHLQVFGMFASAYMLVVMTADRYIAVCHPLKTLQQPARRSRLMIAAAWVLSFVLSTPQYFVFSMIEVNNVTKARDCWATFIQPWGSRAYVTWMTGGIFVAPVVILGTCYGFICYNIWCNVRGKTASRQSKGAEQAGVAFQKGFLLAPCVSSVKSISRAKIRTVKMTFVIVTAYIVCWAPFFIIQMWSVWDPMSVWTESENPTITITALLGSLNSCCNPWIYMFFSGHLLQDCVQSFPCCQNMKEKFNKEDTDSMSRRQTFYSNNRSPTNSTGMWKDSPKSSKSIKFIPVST

[39] = target: Neuropeptide Y receptor type 1 (Homo sapiens) (UniProt P25929); experiment: Inhibition of Neuropeptide Y Y1 at 10 µM in the Eurofins-Panlabs radioligand binding assay (Eurofins_assay_257010); settings: Compound concentration 10.0 uM
[40] = target: Vasoactive intestinal polypeptide receptor 1 (Homo sapiens) (UniProt P32241); experiment: Inhibition of Vasoactive Intestinal Peptide VIP1 at 10 µM in the Eurofins-Panlabs radioligand binding assay (Eurofins_assay_287010); settings: Compound concentration 10.0 uM
Vasoactive intestinal polypeptide receptor 1 (Homo sapiens), sequence (P32241 whole entry): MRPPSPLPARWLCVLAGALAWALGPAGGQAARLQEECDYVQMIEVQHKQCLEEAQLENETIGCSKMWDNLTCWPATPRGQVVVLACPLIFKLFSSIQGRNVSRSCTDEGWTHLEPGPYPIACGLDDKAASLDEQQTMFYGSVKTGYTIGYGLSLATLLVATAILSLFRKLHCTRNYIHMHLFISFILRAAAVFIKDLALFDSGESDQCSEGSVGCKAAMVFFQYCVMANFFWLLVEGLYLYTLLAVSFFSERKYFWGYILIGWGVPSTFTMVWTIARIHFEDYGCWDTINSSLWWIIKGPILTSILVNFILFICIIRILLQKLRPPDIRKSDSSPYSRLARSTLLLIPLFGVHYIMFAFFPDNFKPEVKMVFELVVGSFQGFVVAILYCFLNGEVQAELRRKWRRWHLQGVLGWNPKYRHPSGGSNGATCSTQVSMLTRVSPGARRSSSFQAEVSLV

CC(C)CC(=O)N1CCc2nc(-c3ccc(Br)cc3)nc(N(C)Cc3ccccc3)c2C1 [THPP-1-NC]
0.578 µM: Ki [2]
inactive: residual activity [1] 93% | residual activity [3] 100% | inhibition [4] -4.38%

COCCOc1nc(-c2ccc(Cl)nc2)nc2c1CN(C(=O)c1ncn3ccccc13)CC2 [THPP-1]
inactive: inhibition [5] -4% | inhibition [6] 4% | inhibition [7] 2% | inhibition [8] 13% | inhibition [9] -2% | inhibition [10] 2.72% | inhibition [11] -4% | inhibition [12] -3% | inhibition [13] 4% | inhibition [14] 4% | inhibition (Homo sapiens [15]) -8% | inhibition [16] 5% | inhibition [17] 5% | inhibition [18] 0% | inhibition (Rattus norvegicus) 37% | inhibition [19] -3% | inhibition [20] 22% | inhibition [21] 12% | inhibition [22] 9% | inhibition [23] 7% | inhibition [24] -1% | inhibition [25] 5% | inhibition [26] 45% | inhibition [27] 18% | inhibition [28] 2% | inhibition [29] 0% | inhibition [30] 3% | inhibition [31] -6.81% | inhibition (Homo sapiens [32]) 22% | inhibition [33] -1% | inhibition [34] -1% | inhibition [35] 3% | inhibition [36] 6% | inhibition [37] 1% | inhibition [38] 1% | inhibition [39] 1% | inhibition [40] 8%
